Test results reported in patent publication US20230122249A1, “1H-PYRAZOLO[4,3-d]PYRIMIDINE COMPOUNDS AS TOLL-LIKE RECEPTOR 7 (TLR7) AGONISTS” (BRISTOL-MYERS SQUIBB COMPANY, priority 2020, published 2023).

target: T1, human TLR7 (Homo sapiens, UniProt Q9NYK1); experiment: Human TLR7 agonist activity (hTLR7 reporter) assay in HEK-Blue TLR7 cells, SEAP readout; format: cell-based; settings: 18 h treatment, average where assay repeated
T1 construct: host or cells: HEK-Blue TLR7 cells (engineered human embryonic kidney cells)
T1 sequence (Q9NYK1 27-1049): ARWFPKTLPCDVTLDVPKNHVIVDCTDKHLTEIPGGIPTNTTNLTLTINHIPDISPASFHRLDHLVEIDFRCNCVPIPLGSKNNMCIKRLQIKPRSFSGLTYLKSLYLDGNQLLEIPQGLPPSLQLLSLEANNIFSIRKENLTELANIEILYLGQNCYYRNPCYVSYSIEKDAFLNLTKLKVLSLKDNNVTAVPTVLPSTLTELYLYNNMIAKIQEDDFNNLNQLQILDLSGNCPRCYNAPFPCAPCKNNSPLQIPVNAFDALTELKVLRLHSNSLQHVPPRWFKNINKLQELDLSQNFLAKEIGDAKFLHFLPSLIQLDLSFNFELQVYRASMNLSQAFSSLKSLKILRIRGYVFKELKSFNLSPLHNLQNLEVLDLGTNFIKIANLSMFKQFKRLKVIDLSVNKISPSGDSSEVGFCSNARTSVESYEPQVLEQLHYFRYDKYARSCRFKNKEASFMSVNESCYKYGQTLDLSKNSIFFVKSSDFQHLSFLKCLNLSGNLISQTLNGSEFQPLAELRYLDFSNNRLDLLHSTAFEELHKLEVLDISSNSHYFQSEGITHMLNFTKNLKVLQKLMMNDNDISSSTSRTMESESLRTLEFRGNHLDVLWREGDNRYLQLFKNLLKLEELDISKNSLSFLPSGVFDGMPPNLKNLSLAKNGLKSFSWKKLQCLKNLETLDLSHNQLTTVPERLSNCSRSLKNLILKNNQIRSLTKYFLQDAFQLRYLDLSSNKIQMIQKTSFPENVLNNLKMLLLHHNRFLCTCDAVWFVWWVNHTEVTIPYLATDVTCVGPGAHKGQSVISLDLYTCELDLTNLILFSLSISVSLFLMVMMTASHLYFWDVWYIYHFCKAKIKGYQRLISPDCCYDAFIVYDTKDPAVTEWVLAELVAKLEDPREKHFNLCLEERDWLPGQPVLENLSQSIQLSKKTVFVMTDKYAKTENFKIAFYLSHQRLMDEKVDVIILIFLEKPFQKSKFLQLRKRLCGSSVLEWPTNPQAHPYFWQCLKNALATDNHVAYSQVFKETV
Procedure: This procedure describes a method for assaying human TLR7 (hTLR7) agonist activity of the compounds disclosed in this specification.
HEK-Blue™ TLR7 cells were added to each well of a 384-well tissue-culture plate (15,000 cells per well) and incubated 16-18 h at 37° C., 5% CO2. Compounds (100 nl) were dispensed into wells containing the HEK-Blue™ TLR cells and the treated cells were incubated at 37° C., 5% CO2. After 18 h treatment ten microliters of freshly-prepared Quanti-Blue™ reagent (Invivogen) was added to each well, incubated for 30 min (37° C., 5% CO2) and SEAP levels measured using an Envision plate reader (OD=620 nm). The half maximal effective concentration values (EC50; compound concentration which induced a response halfway between the assay baseline and maximum) were calculated.

EC50 [nM] | SMILES
32.6 | CCCN1CCC(NC(=O)c2ccc(Cn3ncc4nc(N)nc(NCC5CC6(CC6)C5)c43)c(OC)c2)CC1 [Compound 197]
90.3 | COc1cc(C(=O)NC2CCN(C)CC2)ccc1Cn1ncc2nc(N)nc(NCC3CC4(CC4)C3)c21 [Compound 198]
124 | COc1cc(C(=O)N2CC3(CN(C)C3)C2)ccc1Cn1ncc2nc(N)nc(NCC3CC4(CCC4)C3)c21 [Compound 200]
842 | COc1cc(C(=O)NC2CC3(C2)CN(C)C3)ccc1Cn1ncc2nc(N)nc(NCC3CC4(CC4)C3)c21 (stereo not drawn) [Compound 201]
328 | COc1cc(C(=O)NC2CN(C)C2)ccc1Cn1ncc2nc(N)nc(NCC3CC4(CCC4)C3)c21 [Compound 205]
93.3 | CCC[C@@H](CCO)Nc1nc(N)nc2cnn(Cc3ccc(C(=O)N4CC5(CN(C)C5)C4)cc3OC)c12 [Compound 206]
325 | COc1cc(C(=O)NC2CCN(C)CC2)ccc1Cn1nc(C)c2nc(N)nc(NCC3CC4(CC4)C3)c21 [Compound 207]
119 | COc1cc(C(=O)N2C[C@H]3C[C@@H]2CN3C)ccc1Cn1nc(C)c2nc(N)nc(NCC3CC4(CC4)C3)c21 [Compound 208]
242 | CCC[C@@H](CCO)Nc1nc(N)nc2cnn(Cc3ccc(C(=O)N4CC5(CNC5)C4)cc3OC)c12 [Compound 209]
640 | COc1cc(CN2CC3(CN(C)C3)C2)ccc1Cn1ncc2nc(N)nc(NCc3cc(C)on3)c21 [Compound 211]
53.4 | COc1cc(CN2CC3(C2)CN(C(C)C)C3)ccc1Cn1ncc2nc(N)nc(NCc3cc(C)on3)c21 [Compound 213]
67.6 | COc1cc(C(=O)N2CC3(CN(C)C3)C2)ccc1Cn1ncc2nc(N)nc(NCc3cc(C)on3)c21 [Compound 214]
372 | CCC[C@@H](CCO)Nc1nc(N)nc2cnn(Cc3ccc(CN4CC5(CN(C)C5)C4)cc3OC)c12 [Compound 215]
7.3 | CCC[C@@H](CCO)Nc1nc(N)nc2cnn(Cc3ccc(CN4CC5(C4)CN(C(C)C)C5)cc3OC)c12 [Compound 216]
115 | COc1cc(C(=O)N2C[C@H]3CN(C)C[C@H]3C2)ccc1Cn1nc(C)c2nc(N)nc(NCC3CC4(CC4)C3)c21 [Compound 217]
125 | CN1C[C@@H]2CN(C(=O)c3ccc(Cn4ncc5nc(N)nc(NCC6CC7(CC7)C6)c54)c(OC(F)F)c3)C[C@@H]2C1 [Compound 218]
188 | CN1C[C@H]2C[C@@H]1CN2C(=O)c1ccc(Cn2ncc3nc(N)nc(NCC4CC5(CC5)C4)c32)c(OC(F)F)c1 [Compound 219]
1240 | CN1CCC(NC(=O)c2ccc(Cn3ncc4nc(N)nc(NCC5CC6(CC6)C5)c43)c(OC(F)F)c2)CC1 [Compound 220]

system: CD69 in human whole blood; experiment: Induction of CD69 in human whole blood (hWB); format: cell-based; settings: heparinized human whole blood, 17 h, CD69 surface staining; 100% set to 1 uM resiquimod; average where assay repeated
Procedure: The induction of Type I interferon (IFN) MX-1 genes and the B-cell activation marker CD69 are downstream events that occur upon activation of the TLR7 pathway. The following is a human whole blood assay that measures their induction in response to a TLR7 agonist.
Heparinized human whole blood was harvested from human subjects and treated with test TLR7 agonist compounds at 1 mM. The blood was diluted with RPMI 1640 media and Echo was used to predot 10 nL per well giving a final concentration of 1 uM (10 nL in 10 uL of blood). After mixing on a shaker for 30 sec, the plates were covered and placed in a 37° C. chamber for o/n=17 hrs. Fixing/lysis buffer was prepared (5×->1×in H2O, warm at 37° C.; Cat# BD 558049) and kept the perm buffer (on ice) for later use.
For surface markers staining (CD69): prepared surface Abs: 0.045 ul hCD14-FITC (ThermoFisher Cat # MHCD1401)+0.6 ul hCD19-ef450 (ThermoFisher Cat #48-0198-42)+1.5 ul hCD69-PE (cat# BD555531)+0.855 ul FACS buffer. Added 3 ul/well, spin1000 rpm for 1 min and mixed on shaker for 30 sec, put on ice for 30 mins. Stop stimulation after 30 minutes with 70 uL of prewarmed 1×fix/lysis buffer and use Feliex mate to resuspend (15 times, change tips for each plate) and incubate at 37° C. for 10 minutes.
Centrifuge at 2000 rpm for 5 minutes aspirate with HCS plate washer, mix on shaker for 30 sec and then wash with 70 uL in dPBS and pelleted 2 xs (2000 rpm for 5 min) and 50 ul wash in FACS buffer pelleted 1 xs(2000 rpm for 5 min). Mix on shaker for 30 sec. For Intracellular markers staining (MX-1): Add 50 ul of BD Perm buffer III and mix on shaker for 30 sec. Incubate on ice for 30 minutes (in the dark). Wash with 50 uL of FACS buffer 2×(spin @2300 rpm×5 min after perm) followed by mixing on shaker for 30 sec. Resuspended in 20 ul of FACS buffer containing MX1 antibody ( )(4812)-Alexa 647: Novus Biologicals #NBP2-43704AF647) 20 ul FACS bf+0.8 ul hlgG+0.04 ul MX-1. Spin 1000 rpm for 1 min, mix on shaker for 30 se and the samples were incubated at RT in the dark for 45 minutes followed by washing 2×FACS buffer (spin @2300 rpm×5 min after perm). Resuspend 20 ul (35 uL total per well) of FACS buffer and cover with foil and place in 4° C. to read the following day. Plates were read on iQuePlus. The results were loaded into toolset and […] curves are generated in curve master. The y-axis 100% is set to 1 uM of resiquimod.

EC50 [nM] | SMILES
35.5 | CCCN1CCC(NC(=O)c2ccc(Cn3ncc4nc(N)nc(NCC5CC6(CC6)C5)c43)c(OC)c2)CC1 [Compound 197]
60.6 | COc1cc(C(=O)NC2CCN(C)CC2)ccc1Cn1ncc2nc(N)nc(NCC3CC4(CC4)C3)c21 [Compound 198]
130 | COc1cc(C(=O)N2CC3(CN(C)C3)C2)ccc1Cn1ncc2nc(N)nc(NCC3CC4(CCC4)C3)c21 [Compound 200]
206 | COc1cc(C(=O)NC2CC3(C2)CN(C)C3)ccc1Cn1ncc2nc(N)nc(NCC3CC4(CC4)C3)c21 (stereo not drawn) [Compound 201]
314 | COc1cc(C(=O)NC2CN(C)C2)ccc1Cn1ncc2nc(N)nc(NCC3CC4(CCC4)C3)c21 [Compound 205]
36.3 | CCC[C@@H](CCO)Nc1nc(N)nc2cnn(Cc3ccc(C(=O)N4CC5(CN(C)C5)C4)cc3OC)c12 [Compound 206]
93.3 | COc1cc(C(=O)NC2CCN(C)CC2)ccc1Cn1nc(C)c2nc(N)nc(NCC3CC4(CC4)C3)c21 [Compound 207]
45.8 | COc1cc(C(=O)N2C[C@H]3C[C@@H]2CN3C)ccc1Cn1nc(C)c2nc(N)nc(NCC3CC4(CC4)C3)c21 [Compound 208]
195 | CCC[C@@H](CCO)Nc1nc(N)nc2cnn(Cc3ccc(C(=O)N4CC5(CNC5)C4)cc3OC)c12 [Compound 209]
33.7 | COc1cc(CN2CC3(CN(C)C3)C2)ccc1Cn1ncc2nc(N)nc(NCc3cc(C)on3)c21 [Compound 211]
2.3 | COc1cc(CN2CC3(C2)CN(C(C)C)C3)ccc1Cn1ncc2nc(N)nc(NCc3cc(C)on3)c21 [Compound 213]
10.9 | COc1cc(C(=O)N2CC3(CN(C)C3)C2)ccc1Cn1ncc2nc(N)nc(NCc3cc(C)on3)c21 [Compound 214]
104 | CCC[C@@H](CCO)Nc1nc(N)nc2cnn(Cc3ccc(CN4CC5(CN(C)C5)C4)cc3OC)c12 [Compound 215]
1.3 | CCC[C@@H](CCO)Nc1nc(N)nc2cnn(Cc3ccc(CN4CC5(C4)CN(C(C)C)C5)cc3OC)c12 [Compound 216]
10.8 | COc1cc(C(=O)N2C[C@H]3CN(C)C[C@H]3C2)ccc1Cn1nc(C)c2nc(N)nc(NCC3CC4(CC4)C3)c21 [Compound 217]
35 | CN1C[C@@H]2CN(C(=O)c3ccc(Cn4ncc5nc(N)nc(NCC6CC7(CC7)C6)c54)c(OC(F)F)c3)C[C@@H]2C1 [Compound 218]
37.7 | CN1C[C@H]2C[C@@H]1CN2C(=O)c1ccc(Cn2ncc3nc(N)nc(NCC4CC5(CC5)C4)c32)c(OC(F)F)c1 [Compound 219]
117 | CN1CCC(NC(=O)c2ccc(Cn3ncc4nc(N)nc(NCC5CC6(CC6)C5)c43)c(OC(F)F)c2)CC1 [Compound 220]
